#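 Method: 48-hour compound exposure of cells in 96-well plates, five concentrations, linear interpolation of endpoints. GI50 marks 50% less growth. TGI marks complete inhibition of growth.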
# How the values were obtained:
# Assay in all cases: inhibition of tumour cell growth, NCI panel, 48 h
# MDA-MB-468 breast = system: MDA-MB-468 breast
# NCI-H226 lung = system: NCI-H226 lung
# CCRF-CEM leukemia = system: CCRF-CEM leukemia
# A549 NSCLC = system: A549 NSCLC
# SF-268 CNS = system: SF-268 CNS
# M14 melanoma = system: M14 melanoma
# SW-620 colon = system: SW-620 colon
# MDA-MB-435 = system: MDA-MB-435
# SR leukemia = system: SR leukemia
# MOLT-4 leukemia = system: MOLT-4 leukemia
# IGROV1 ovarian = system: IGROV1 ovarian
# SK-MEL-5 melanoma = system: SK-MEL-5 melanoma
# RXF 393 renal = system: RXF 393 renal
# OVCAR-8 ovarian = system: OVCAR-8 ovarian
# LOX IMVI melanoma = system: LOX IMVI melanoma
# 786-0 renal = system: 786-0 renal
# SF-295 CNS = system: SF-295 CNS
# SF-539 CNS = system: SF-539 CNS
# HS 578T breast = system: HS 578T breast
# SK-OV-3 ovarian = system: SK-OV-3 ovarian
# OVCAR-4 ovarian = system: OVCAR-4 ovarian
# HOP-92 NSCLC = system: HOP-92 NSCLC
# NCI-H460 lung = system: NCI-H460 lung
# A498 renal = system: A498 renal
# BT-549 breast = system: BT-549 breast
# HOP-62 NSCLC = system: HOP-62 NSCLC
# CAKI-1 renal = system: CAKI-1 renal
# MALME-3M melanoma = system: MALME-3M melanoma
# OVCAR-3 ovarian = system: OVCAR-3 ovarian
# NCI-H522 lung = system: NCI-H522 lung
# SNB-19 CNS = system: SNB-19 CNS
# EKVX NSCLC = system: EKVX NSCLC
# PC-3 prostate = system: PC-3 prostate
# SK-MEL-28 melanoma = system: SK-MEL-28 melanoma
# T-47D breast = system: T-47D breast
# HT29 colon = system: HT29 colon
# HCT-116 colon = system: HCT-116 colon
# MCF7 breast = system: MCF7 breast
# ACHN renal = system: ACHN renal
# HCT-15 colon = system: HCT-15 colon
# K-562 leukemia = system: K-562 leukemia
# DU-145 prostate = system: DU-145 prostate
# HCC-2998 colon = system: HCC-2998 colon
# HL-60(TB) leukemia = system: HL-60(TB) leukemia
# COLO 205 colon = system: COLO 205 colon
# KM12 colon = system: KM12 colon
# UACC-62 melanoma = system: UACC-62 melanoma
# OVCAR-5 ovarian = system: OVCAR-5 ovarian
# TK-10 renal = system: TK-10 renal
# SN12C renal = system: SN12C renal
# NCI/ADR-RES ovarian = system: NCI/ADR-RES ovarian
# NCI-H23 lung = system: NCI-H23 lung
# UACC-257 melanoma = system: UACC-257 melanoma
# U251 CNS = system: U251 CNS
# RPMI-8226 leukemia = system: RPMI-8226 leukemia
structure (smiles),measurement,setting,value
Cc1sc2c(c1C)C(c1ccc(Cl)cc1)=N[C@@H](CC(=O)Nc1ccc(OCCOCCOCCOCCNc3cccc4c3C(=O)N(C3CCC(=O)NC3=O)C4=O)cc1)c1nnc(C)n1-2 (stereo partly specified),GI50,MDA-MB-468 breast,< 0.0201 µM
same,TGI,MDA-MB-468 breast,> 100 µM
Cn1cc(S(=O)(=O)N2CCC3=Cc4c(cnn4-c4ccc(F)cc4)C[C@]3(C(=O)c3cc(C(F)(F)F)ccn3)C2)cn1,GI50,MDA-MB-468 breast,68.8 µM
same,TGI,MDA-MB-468 breast,> 100 µM
O=C(N[C@@H](Cc1coc2ccccc12)B(O)O)[C@@H]1C[C@H]2CC[C@@H]1O2,GI50,MDA-MB-468 breast,3.38 µM
same,TGI,MDA-MB-468 breast,36 µM
O=C(N/N=C/c1ccc(O)cc1O)c1cccnc1,GI50,MDA-MB-468 breast,2.23 µM
same,TGI,MDA-MB-468 breast,11.8 µM
c1ccc2c(c1)c1ccccc1c1ccccc21,GI50,MDA-MB-468 breast,> 100 µM
same,TGI,MDA-MB-468 breast,> 100 µM
NCCCOc1cc2ccccc2cc1C(=O)NCCCOc1cc2ccccc2cc1C(=O)Nc1ccc(Cl)cc1O,GI50,MDA-MB-468 breast,0.238 µM
same,TGI,MDA-MB-468 breast,0.821 µM
COc1ccc(-c2noc(N)c2-c2cc(OC)c3c(c2)OCO3)cc1,GI50,MDA-MB-468 breast,0.966 µM
same,TGI,MDA-MB-468 breast,7.47 µM
COc1ccc2c(c1)C(C)Cc1c(ncnc1-n1cnc3ccccc31)N2C (stereo unspecified),GI50,MDA-MB-468 breast,0.293 µM
same,TGI,MDA-MB-468 breast,10.6 µM
Cc1cc(NCCCCNc2ccnc3cc(Cl)ccc23)nc(Nc2ccc(C(=O)N3CCCCC3)cc2)n1,GI50,MDA-MB-468 breast,1.37 µM
same,TGI,MDA-MB-468 breast,3.09 µM
COC(=O)[C@]12CC[C@@H](C)[C@H](C)[C@@H]1C1=CC[C@@H]3[C@@]4(C)C(C=O)=C[C@@](C)(COC(=O)c5ccco5)[C@@H]4[C@H](O)C[C@@]3(C)[C@]1(C)CC2,GI50,MDA-MB-468 breast,1.69 µM
same,TGI,MDA-MB-468 breast,5.66 µM
COc1cc(OC)c2sc(-c3ccc(-n4cncc4-c4cc(OC)c(OC)c(OC)c4)cc3)nc2c1,GI50,MDA-MB-468 breast,3.27 µM
same,TGI,MDA-MB-468 breast,> 100 µM
CN(C)CCNc1nc2ccccc2c2c(=O)c3cc(F)ccc3sc12,GI50,MDA-MB-468 breast,1.65 µM
same,TGI,MDA-MB-468 breast,3.22 µM
COc1cc(/C=C2\CCC/C(=C\c3ccc(OCC4CO4)c(OC)c3)C2=O)ccc1OCC1CO1 (stereo unspecified),GI50,MDA-MB-468 breast,1.63 µM
same,TGI,MDA-MB-468 breast,4.85 µM
Cc1ccc([N+](=O)[O-])c(C(=O)Nc2ccc(-c3ccc4c(c3)NC(=O)/C4=C\c3ccc[nH]3)cc2)c1,GI50,NCI-H226 lung,23.4 µM
same,TGI,NCI-H226 lung,> 100 µM
same,GI50,CCRF-CEM leukemia,> 100 µM
same,TGI,CCRF-CEM leukemia,> 100 µM
same,GI50,A549 NSCLC,> 100 µM
same,TGI,A549 NSCLC,> 100 µM
same,GI50,SF-268 CNS,31.1 µM
same,TGI,SF-268 CNS,> 100 µM
same,GI50,M14 melanoma,> 100 µM
same,TGI,M14 melanoma,> 100 µM
same,GI50,SW-620 colon,> 100 µM
same,TGI,SW-620 colon,> 100 µM
same,GI50,MDA-MB-435,> 100 µM
same,TGI,MDA-MB-435,> 100 µM
same,GI50,SR leukemia,10.4 µM
same,TGI,SR leukemia,> 100 µM
same,GI50,MOLT-4 leukemia,11.2 µM
same,TGI,MOLT-4 leukemia,> 100 µM
same,GI50,IGROV1 ovarian,17.8 µM
same,TGI,IGROV1 ovarian,55 µM
same,GI50,SK-MEL-5 melanoma,> 100 µM
same,TGI,SK-MEL-5 melanoma,> 100 µM
same,GI50,RXF 393 renal,14.6 µM
same,TGI,RXF 393 renal,30.6 µM
same,GI50,OVCAR-8 ovarian,18.7 µM
same,TGI,OVCAR-8 ovarian,39.7 µM
same,GI50,LOX IMVI melanoma,45.9 µM
same,TGI,LOX IMVI melanoma,> 100 µM
same,GI50,786-0 renal,24.4 µM
same,TGI,786-0 renal,68.8 µM
same,GI50,SF-295 CNS,29.2 µM
same,TGI,SF-295 CNS,> 100 µM
same,GI50,SF-539 CNS,25.4 µM
same,TGI,SF-539 CNS,> 100 µM
same,GI50,HS 578T breast,26.3 µM
same,TGI,HS 578T breast,> 100 µM
same,GI50,SK-OV-3 ovarian,23.6 µM
same,TGI,SK-OV-3 ovarian,63.2 µM
same,GI50,OVCAR-4 ovarian,24.4 µM
same,TGI,OVCAR-4 ovarian,> 100 µM
same,GI50,HOP-92 NSCLC,21.3 µM
same,TGI,HOP-92 NSCLC,57.1 µM
same,GI50,NCI-H460 lung,3.48 µM
same,TGI,NCI-H460 lung,> 100 µM
same,GI50,A498 renal,23 µM
same,TGI,A498 renal,49.8 µM
same,GI50,BT-549 breast,9.01 µM
same,TGI,BT-549 breast,61 µM
same,GI50,HOP-62 NSCLC,22.2 µM
same,TGI,HOP-62 NSCLC,54 µM
same,GI50,CAKI-1 renal,> 100 µM
same,TGI,CAKI-1 renal,> 100 µM
same,GI50,MALME-3M melanoma,36.7 µM
same,TGI,MALME-3M melanoma,> 100 µM
same,GI50,OVCAR-3 ovarian,27.6 µM
same,TGI,OVCAR-3 ovarian,98.8 µM
same,GI50,NCI-H522 lung,17 µM
same,TGI,NCI-H522 lung,45.6 µM
same,GI50,SNB-19 CNS,19.9 µM
same,TGI,SNB-19 CNS,50.3 µM
same,GI50,EKVX NSCLC,0.211 µM
same,TGI,EKVX NSCLC,> 100 µM
same,GI50,PC-3 prostate,> 100 µM
same,TGI,PC-3 prostate,> 100 µM
same,GI50,SK-MEL-28 melanoma,> 100 µM
same,TGI,SK-MEL-28 melanoma,> 100 µM
same,GI50,T-47D breast,0.515 µM
same,TGI,T-47D breast,20.9 µM
same,GI50,HT29 colon,> 100 µM
same,TGI,HT29 colon,> 100 µM
same,GI50,HCT-116 colon,23.2 µM
same,TGI,HCT-116 colon,> 100 µM
same,GI50,MCF7 breast,0.237 µM
same,TGI,MCF7 breast,17.1 µM
same,GI50,ACHN renal,43.6 µM
same,TGI,ACHN renal,> 100 µM
same,GI50,HCT-15 colon,> 100 µM
same,TGI,HCT-15 colon,> 100 µM
same,GI50,K-562 leukemia,> 100 µM
same,TGI,K-562 leukemia,> 100 µM
same,GI50,DU-145 prostate,43.8 µM
same,TGI,DU-145 prostate,> 100 µM
same,GI50,HCC-2998 colon,60 µM
same,TGI,HCC-2998 colon,> 100 µM
same,GI50,HL-60(TB) leukemia,> 100 µM
same,TGI,HL-60(TB) leukemia,> 100 µM
same,GI50,COLO 205 colon,53.1 µM
same,TGI,COLO 205 colon,> 100 µM
same,GI50,KM12 colon,> 100 µM
same,TGI,KM12 colon,> 100 µM
same,GI50,MDA-MB-468 breast,0.267 µM
same,TGI,MDA-MB-468 breast,0.943 µM
same,GI50,UACC-62 melanoma,90.4 µM
same,TGI,UACC-62 melanoma,> 100 µM
same,GI50,OVCAR-5 ovarian,23.9 µM
same,TGI,OVCAR-5 ovarian,> 100 µM
same,GI50,TK-10 renal,22.7 µM
same,TGI,TK-10 renal,62 µM
same,GI50,SN12C renal,55.2 µM
same,TGI,SN12C renal,> 100 µM
same,GI50,NCI/ADR-RES ovarian,17 µM
same,TGI,NCI/ADR-RES ovarian,38.1 µM
same,GI50,NCI-H23 lung,1.78 µM
same,TGI,NCI-H23 lung,19.2 µM
same,GI50,UACC-257 melanoma,> 100 µM
same,TGI,UACC-257 melanoma,> 100 µM
same,GI50,U251 CNS,16.4 µM
same,TGI,U251 CNS,35.5 µM
same,GI50,RPMI-8226 leukemia,> 100 µM
same,TGI,RPMI-8226 leukemia,> 100 µM

# From PubChem BioAssay (NCI)
